The values that follow are results of earlier work, collected in patent US20250099475A1, “METHODS OF TREATING HYPERTENSION BY PERIODIC SUPPRESSION OF ALDOSTERONE SYNTHASE” (Mineralys Therapeutics, Inc., priority 2022, published 2025).

The conditions of this series: in vivo; cited from earlier work.

Consider `CC(=O)S[C@@H]1CC2=CC(=O)CC[C@]2(C)[C@H]2CC[C@@]3(C)[C@@H](CC[C@@]34CCC(=O)O4)[C@H]12` [Spironolactone], for which the risk of hyperkalemia was at most 10%.
